According to patent US20110294874A1, “DIAGNOSIS AND THERAPY OF ORGAN DYSFUNCTION USING SPHINGANINE-1-PHOSPHATE” (The Trustees of Columbia University in the City of New York, priority 2008, published 2011):
Where “and” joins values, the source holds several entries; their conditions need not be identical. Identical values can stand only once.

Assays:
[1] = system: C57BL/6 mice subjected to liver IR; assay: Survival of mice after liver IR; format: in vivo, mouse; conditions: 24 hours post liver IR
Description: Without Sg1P administration, 20% of mice subjected to liver IR stayed alive after 1 week. With Sg1P treatment, 50% of mice subjected to liver IR that received Sg1P remained alive after the same time period.

[2] = system: C57BL/6 mice subjected to liver IR; assay: Neutrophil infiltration into liver and kidney after liver IR; format: in vivo, mouse
Procedure: (§1) Mice were anesthetized with intraperitoneal pentobarbital (50 mg/kg or to effect). Mice were placed under a heating lamp and on a 37° C. heating pad. After a midline laparotomy and intraperitoneal application of 20 U heparin, left lateral and median lobes of the liver were subjected to ischemia with a microaneurysm clip occluding the hepatic triad above the bifurcation. This method of partial hepatic ischemia results in a segmental (˜70%) hepatic ischemia but spares the right lobe of the liver and prevents mesenteric venous congestion by allowing portal decompression throughout the right and caudate lobes of the liver. The liver was then repositioned in the peritoneal cavity in its original location for 60 minutes. The liver was kept moist with gauze soaked in 0.9% normal saline. The body temperature was monitored by an infrared temperature sensor (Linear Laboratories, Fremont, Calif.) every 10 min. and maintained at 37° C. using a heating lamp and a heating pad. After 60 minutes, the liver was reperfused and the wound closed. Sham-operated mice were subjected to laparotomy and identical liver manipulations without vascular occlusion. Two, 4 and 24 hr after reperfusion, plasma was collected for the measurement of alanine aminotransferase (ALT), a common indicator of liver damage, as well as creatinine (Cr) a common indicator of kidney damage. […]

[3] = system: Nephrectomized C57BL/6 mice with liver IR; assay: Nephrectomized C57BL/6 mice with 45 min. liver IR: serum ALT; format: in vivo, mouse
Procedure: Normally, 1 hour of liver IR results in serum ALT increasing to 15076±1174 U/L (N=6) 24 hours later. In nephrectomized mice, however, the rise in ALT was more severe, and it rose to 20237±2628 U/L (N=3) after only 45 minutes of liver IR. The nephrectomized mice were also less responsive to Sg1P treatment.

[4] = system: Sham-operated C57BL/6 mice; assay: Sham-operated C57BL/6 mice: plasma ALT and creatinine; format: in vivo, mouse
Procedure: as §1

[5] = system: human renal glomerular endothelial cells (HRGEC); assay: HRGEC apoptosis, kinase phosphorylation, HSP27 and F-actin; format: cell-based
Procedure: IHUVEC—immortalized human umbilical vein endothelial cells (ATCC, P.O. Box 1549 Manassas, Va. 20108) or HRGEC—human renal glomerular endothelial cells (ScienCell Research Laboratories, 6076 Corte Del Cedro Carlsbad, Calif. 92011) were cultured within a humidified atmosphere of 5% CO2 in air and grown to confluence. When confluent, the cells were trypsinized and seeded onto 0.45 μm pore size polycarbonate filters at the base of inserts of 6.5 mm diameter Transwell chambers and cultured until confluence.
In further experiments, apoptosis was induced in human renal endothelial (HRGEC) cells with either TNF-α plus cycloheximide or H2O2, with or without Sg1P treatment. In both cases, the addition of Sg1P (1 uM) reduced PARP and caspase 3 fragmentations, which are indices of apoptosis (N=2, data not shown).

[6] = system: C57BL/6 mice subjected to liver IR; assay: Evans blue dye extravasation (vascular permeability) in liver and kidney after liver IR; format: in vivo, mouse; conditions: vs vehicle-treated group
Procedure: After observing marked endothelial apoptosis following liver IR, liver and kidney vascular permeability after liver IR was measured with Evans blue dye (EBD) injection. EBD binds to plasma proteins and its appearance in extravascular tissues reflects an increase in vascular permeability, which is indicative of organ injury. Liver IR increased the EBD content (in μg EBD/g dry weight) in the liver (377±48, N=6) compared to sham-operated mice (48±7, N=4, p<0.001).

[7] = system: ERK/MAPK, Akt, HSP27; assay: Immunoblotting/RT-PCR of liver and kidney of mice injected with Sg1P; format: in vivo, mouse; conditions: i.v. injection
Procedure: Mice were injected with sphinganine 1-phophate intravenously and their kidney and liver tissues were extracted at 15 minutes after injection (for immunoblotting of phosphorylated proteins) or at 5 hours after injection (for RT-PCR). […] HSP27 is a known F-actin stabilizing and anti-apoptotic protein.

[8] = system: C57BL/6 mice subjected to liver IR; assay: Liver H&E histology after liver IR (percent necrosis, Suzuki score); format: in vivo, mouse; conditions: liver IR; for Suzuki score (0 = no injury, 12 = maximal injury): H&E liver
Procedure: (§2) Mice were anesthetized with intraperitoneal pentobarbital (50 mg/kg or to effect). Mice were placed under a heating lamp and on a 37° C. heating pad. After a midline laparotomy and intraperitoneal application of 20 U heparin, left lateral and median lobes of the liver were subjected to ischemia with a microaneurysm clip occluding the hepatic triad above the bifurcation. This method of partial hepatic ischemia results in a segmental (˜70%) hepatic ischemia but spares the right lobe of the liver and prevents mesenteric venous congestion by allowing portal decompression throughout the right and caudate lobes of the liver. The liver was then repositioned in the peritoneal cavity in its original location for 60 minutes. The liver was kept moist with gauze soaked in 0.9% normal saline. The body temperature was monitored by an infrared temperature sensor (Linear Laboratories, Fremont, Calif.) every 10 min. and maintained at 37° C. using a heating lamp and a heating pad. After 60 minutes, the liver was reperfused and the wound closed. Sham-operated mice were subjected to laparotomy and identical liver manipulations without vascular occlusion. Two, 4 and 24 hr after reperfusion, plasma was collected for the measurement of alanine aminotransferase (ALT), a common indicator of liver damage, as well as creatinine (Cr) a common indicator of kidney damage. The liver tissue subjected to IR was collected to measure percent liver necrosis (2, 4 and 24 hr after IR), neutrophil infiltration (with immunohistochemistry, 4 and 24 hr after IR), apoptosis (with terminal deoxynucleotidyl transferase-mediated dUTP nick end labeling staining, caspase 3 immunoblotting and DNA laddering, 24 hr after IR), and inflammation by RT-PCR for pro-inflammatory mRNAs (4 hr after IR).
Livers were also analyzed for the degree of hepatocellular damage using the Suzuki's criteria (Suzuki et al., Transplantation 1993, Vol. 55, pp. 1265-1272). To obtain a Suzuki score, 3 liver injury indices are graded: sinusoidal congestion (0-4), hepatocyte necrosis (0-4), and ballooning degeneration (0-4) are graded for a total score of 0-12. No necrosis, congestion, or centrilobular ballooning is given a score of 0 whereas severe congestion/ballooning and >60% lobular necrosis is given a value of 4.

[9] = system: SK2 KO mice subjected to liver IR; assay: Liver IR in SK2 KO mice: plasma ALT and creatinine; format: in vivo, mouse; conditions: SK2KO, hepatic IR 24 h
Procedure: The effects of administering Sg1P (0.1 mg/kg i.v. and 0.2 mg/kg s.c.) on liver and renal injury were also determined in the KO mice and are also shown in Tables 9 and 10 below.

[10] = system: C57BL/6 mice subjected to liver IR; assay: Pro-inflammatory mRNA (RT-PCR) and plasma TNF-α/IL-6 after liver IR; format: in vivo, mouse
Procedure: as §2
The extent of the suppression was different between kidney and liver. […]

[11] = nephrectomized, 45 min. liver IR

With `CCCCCCCCCCCCCCC[C@@H](O)[C@@H](N)COP(=O)(O)O` [Sg1P, sphinganine-1-phosphate] the Survival rate [1] was about 90%, the “Neutrophils in necrotic areas of the liver” value [2] was 21.8±7.1 neutrophils/field and the “Neutrophils in the kidneys” value [2] was 0.8±0.3 neutrophils/field. For the same compound, the “Reduction in the severity of liver injury (change in ALT levels)” value ([3]; nephrectomized mice) was 16%, the “ALT (24 hrs. post-IR), individual mice” value [3, 11] was 15993.65 U/L and 19276.19 U/L and 15819.05 U/L and the “ALT (24 hrs. post-IR), mean” value [3, 11] was 17029±1124 U/L and 17029.63 U/L. For the same compound, the “Mean ALT” value [4] was 80 U/L, the “Mean Creatinine” value [4] was 0.46 mg/dL and the “PARP and caspase 3 fragmentations” value ([5]; 1 uM, apoptosis induced with TNF-α plus cycloheximide or H2O2) was “reduced”. For the same compound, the “Phalloidin staining (F-actin)” value ([5]; HRGEC treated with TNF-α, co-administration) was “restored the phalloidin staining”, the “HSP27 phosphorylation and total HSP27 expression” value ([5]; HRGEC, 1 μM) was “induced the phosphorylation of HSP27, as well as increased expression of total HSP27” and the “Phosphorylation of ERK and Akt” value ([5]; HRGEC, 1 μM) was “resulted in the phosphorylation”. The “Increase in EBD content in liver and kidney” value [6] was “significantly lower”, the “Phosphorylation of ERK/MAPK, Akt and HSP27 in liver and kidney” value ([7]; tissues 15 minutes after injection) was “resulted in phosphorylation” and the “HSP27 mRNA expression in liver and kidney” value ([7]; tissues 5 hours after injection) was “induced”. For the same compound, the “Suzuki score (0 = no injury, 12 = maximal injury)” value [8] was 5.2 ± 0.8, the “Suzuki score (0 = no injury, 12 = maximal injury)” value ([8]; listed as sphinganine 1-phosphate) was 5.2±0.8 and the “Average percent necrotic areas in liver” value ([8]; H&E) was 44±8%. For the same compound, the “Creatinine (mean)” value [9] was 0.679 mg/dL, the “ALT (mean)” value ([9]; 0.1 mg/kg i.v. and 0.2 mg/kg s.c.) was 7575.28 U/L and the “Liver IR-induced ICAM-1 and MIP-2 mRNA upregulation in kidney” value ([10]; kidney) was “suppressed”. The “Liver IR-induced upregulation of ICAM-1, KC, MCP-1 and MIP-2 mRNA in liver” value ([10]; liver) was “suppressed” and the “Liver IR-induced increase in plasma TNF-α and IL-6” value ([10]; plasma) was “almost eliminated”.
